Laboratory results as given in US8017747B2, “Apoptosis-inducing genes for treating cancer” (Nationwide Children's Hospital, Inc., priority 2004, dated 2011).
Counter-ions that a name gives are not always drawn. Like-named read-outs stand apart in the source and are kept apart here.

Key:
[1] = system: 697Bcl2 cells; assay: 697Bcl2 cell growth, trypan blue exclusion; type: cell-based; details: 72 hours
Source text: (§1) To determine cell viability, cells were subjected to trypan blue exclusion assays. Briefly, cells were washed with PBS, and diluted 1:1 in a solution of 0.4% trypan blue. Viable cells were counted and total viable cell number was used for growth curves. Late apoptotic/necrotic cells were also identified by staining with 0.4% trypan blue. The number of apoptotic/necrotic cells were counted and expressed as a percentage of the total number of cells.
(§2) The foregoing descriptions provide many working examples organized under a single example as an aid to the reader. Further, these descriptions emphasized the results obtained with Jurkat cells.

[2] = system: SKOV-3 intraperitoneal ovarian tumors; details: 26 days; for Tumor Size / Tumor Weight: mean
[3] = system: Daoy cells; assay: Daoy cell growth/viability, trypan blue exclusion; type: cell-based; details: 24 hours, VCR 2 μM
Procedure: Medulloblastoma cell lines, i.e., Daoy cells (ATCC HTB-186), were grown in DMEM-(Mediatech) supplemented with 10% FBS and grown at 37° C. in 95% air, 5% CO2. For growth analysis, cells were seeded at a density of 1.5×10^5 cells. Transfections were performed using effectene transfection reagent, at a ratio of 1 μg DNA:10 μl effectene.
as §1
Proliferating Daoy cells were seeded at a density of 1.5×10^5 cells and transfected with control plasmid, SAGA, or treated with 2 μM VCR. Viable cells were assayed by trypan blue exclusion at 0, 24, 48 and 72 hours post-transfection/treatment. There was a 90% decrease in the viability of SAGA-transfected cells at 24 hours compared to 50% for VCR-treated cells. Control cells grew consistently, with a doubling time of approximately 48 hours.

[4] = system: Jurkat cells; assay: Phase contrast microscopy of Jurkat cells (morphological changes); type: cell-based; details: 12 hours
Procedure: SAGA transfected, VCR treated, and control cells were visualized microscopically at 0, 12, 48 and 72 hours post transfection/treatment. At 0 hours, the cells in all groups appeared healthy. At 12 hours, there was approximately 5% apoptosis seen in both SAGA- and VCR-treated cell populations. At 48 and 72 hours, more than 50% of apoptotic cells in SAGA- and VCR-treated cell populations were visualized, with a very high degree of morphologically abnormal cells in the population of cells transfected with SAGA, including late necrotic and lysed cells, appearing as cellular debris.

[5] = system: Jurkat cells; assay: Jurkat cell growth/viability and late apoptosis, trypan blue exclusion; type: cell-based
Procedure: Acute T-cell leukemia cells, Jurkat, were grown in RPMI-1640 (Mediatech) supplemented with 10% FBS and grown at 37° C. in 95% air, 5% CO2. For growth analysis, cells were seeded at a density of 2×10^5 cells and for all other experiments a density of 5×10^5 was used. Transfections were performed using effectene transfection reagent, at a ratio of 1 μg DNA:25 μl effectene.
as §1
Proliferating Jurkat cells were seeded at a density of 2×10^5 cells and transfected with control plasmid, SAGA, or treated with 2 μM VCR. Viable cells were assayed by trypan blue exclusion at 0, 12, 24, 48 and 72 hours post-transfection/treatment. […]
Late apoptosis was quantified as the percentage of dead cells versus total cells. […]
In addition to the single treatment effects of SAGA expression on transfected cells, the combined effects of treatment with SAGA plus VCR were also evaluated in vitro using Jurkat cells. […]

[6] = system: 697Bcl2 cells (B-ALL); assay: Annexin V/PI staining with FACS, B-ALL (697Bcl2); type: cell-based
Procedure: (§3) To analyze early apoptotic events, cells from the different experimental conditions were subjected to staining with an Annexin V-FLUOS kit (Roche). FACS analysis was then performed.
as §2

[7] = system: Jurkat cells; assay: Western blot of Jurkat lysates (Granzyme B, caspase-3, p21); type: cell-based; details: 48 hours
Procedure: Proteins were extracted from cells by boiling in 0.5% SDS. Quantification of the protein content of the cell lysates was determined using the Lowry method. A total of 15 μg of each cell lysate were analyzed through electrophoretic separation in 12% SDS-PAGE and transferred onto a nitrocellulose membrane using a semi-dry transfer apparatus, at 20V for 1 hour. The membrane was probed with rabbit anti-caspase-3 polyclonal antibody (1:1000, Santa Cruz Biotech), rabbit anti-granzyme B (1:1000, Abcam) or mouse anti-p21 (1:1000, Santa Cruz Biotech) and HRP-conjugated anti-rabbit or anti-mouse IgG (1:5000, Santa Cruz Biotech). Detection was achieved using the ECL or ECL Advanced kits (Amersham) and exposure to X-ray film for varying amounts of time. Protein standards were used for size determination.
Proliferating Jurkat cells were transfected with the survivin promoter-granzyme B construct disclosed herein and termed SAGA, for 24 or 48 hours. Protein extracts were generated from transfected cells and control transfected cells, and analyzed by SDS-PAGE.
After confirming expression of Granzyme B from SAGA, its apoptotic function was tested by assaying for caspase-3 activation. Proliferating Jurkat cells were transfected with SAGA for 24 or 48 hours, as previously described. Protein extracts were separated by SDS-PAGE.
The levels of p21 in control cells at both time points were negligible.

[8] = system: Jurkat cells (T-ALL); assay: Annexin V/PI staining with FACS, T-ALL (Jurkat); type: cell-based
Procedure: as §3
Annexin-V/PI is a commonly used method to detect early apoptotic events in cells. We employed this strategy to assay early apoptosis in SAGA transfected cells at 12, 24 and 48 hours.
Apoptotic events were detected by Annexin V staining and by changes in mitochondrial potential, as early as 12 hours post-treatment. In addition to these events, DNA fragmentation was also observed and caspase-3 activation was evident in treated cells. Cytotoxicity was clearly visible by microscopic analysis 24 hours post-treatment (FIG. 3).

[9] = system: Daoy cells; assay: Phase contrast microscopy of Daoy cells; type: cell-based; details: 48 and 72 hours
Procedure: Living cells in 12-well plates were observed by phase contrast microscopy using a Leica Inverted microscope at 10× magnification.
SAGA-transfected, VCR-treated, and control cells were visualized microscopically at 0, 24, 48 and 72 hours post transfection/treatment. At 0 hours, the cells in all groups appeared healthy.

[10] = system: Jurkat cells; assay: DNA fragmentation by agarose gel, Jurkat; type: cell-based; details: 48 hours
Procedure: To analyze DNA fragmentation, cellular DNA was isolated by lysis of cells in Cell Lysis Buffer (50 mM Tris-HCl, pH 8.5, 20 mM EDTA, 1% NP-40 (IGEPAL CA-630)) for 30 minutes on ice, followed by a 1 hour incubation at 56° C. with 500 μg/ml RNase A (Roche) and an overnight incubation with 1 mg/ml proteinase K (Fisher) at 37° C. After allowing the solution to cool to room temperature, proteins were precipitated with Protein precipitation solution (Gentra Systems) and isopropanol was added to the supernatants containing DNA to precipitate that DNA. The resulting RNase-treated DNA was quantified by spectrophotometry and 5 μg of DNA were resolved in a 1.8% agarose gel at 80V for 2 hours. DNA was stained by ethidium bromide and visualized with a UV transilluminator. A 1 kB Plus DNA ladder (Fisher) was run alongside the samples.
DNA fragmentation is a common sign of late-stage apoptosis that is characterized by enzyme-mediated nicks and breaks in the DNA. […] The onset of DNA fragmentation occurred at 12 hours post-treatment for SAGA-treated cells. […] DNA from control cells remained intact throughout the experiment.

`COc1cc([C@@H]2c3cc4c(cc3[C@@H](O[C@@H]3O[C@@H]5CO[C@@H](C)O[C@H]5[C@H](O)[C@H]3O)[C@H]3COC(=O)[C@H]23)OCO4)cc(OC)c1O` [Etoposide, etoposide] was tested, and the “living cells as % of the original inoculum” value ([1]; vincristine normal serum concentration, etoposide 5 μM) was 61.8%.
In the case of `CC(=O)O[C@H]1C(=O)[C@@]2(C)[C@H]([C@H](OC(=O)c3ccccc3)[C@]3(O)C[C@H](OC(=O)[C@H](O)[C@@H](NC(=O)c4ccccc4)c4ccccc4)C(C)=C1C3(C)C)[C@]1(OC(C)=O)CO[C@@H]1C[C@@H]2O` [Paclitaxel, paclitaxel], the “Disease Dissemination” value [2] was 4 of 5, the “Number of Nodules” value [2] was 6.2 ± 3.9 and the “Animals with Tumors at Completion of Therapy” value ([2]; paclitaxel 15 mg/kg i.p. 2 injections, SAGA 0.5 mg/kg DNA i.p. twice weekly) was 5 of 5. For the same molecule, the “Tumor Size” value [2] was 10.4 ± 1.3 mm, the “Tumor Weight” value [2] was 236.0 ± 79.8 mg and the “Tumor Size” value ([2]; listed as paclitaxel) was 10.4 mm. The “Tumor Weight” value ([2]; listed as paclitaxel) was 236.0 mg.
With `CC[C@]1(O)C[C@H]2CN(CCc3c([nH]c4ccccc34)[C@@](C(=O)OC)(c3cc4c(cc3OC)N(C=O)[C@H]3[C@@](O)(C(=O)OC)[C@H](OC(C)=O)[C@]5(CC)C=CCN6CC[C@]43[C@@H]65)C2)C1` [Vincristine, Vincristine sulfate] the decrease in viability [3] was 50%, the “living cells as % of the original inoculum” value ([1]; high dose of vincristine (5 μM)) was 103% and the apoptosis seen microscopically [4] was “approximately 5%”. The average viability ([5]; 48 hours after treatment) was 86%, the “final living cell count as % of the initial cell number at time 0” value ([5]; 72 hours post-transfection/treatment, VCR 2 μM) was 63% and the “Early Apoptosis” value ([6]; 24 hours) was 1.78%. For the same molecule, the Necrosis ([6]; 24 hours) was 1.17%, the “Early Apoptosis” value ([6]; 48 hours) was 5.09% and the Necrosis ([6]; 48 hours) was 2.34%. The p21 protein induction [7] was “much lower levels”, the “Early Apoptosis” value ([8]; 24 hours) was 46.5% and the Necrosis ([8]; 24 hours) was 18%. The “Early Apoptosis” value ([8]; 48 hours) was 49.4%, the Necrosis ([8]; 48 hours) was 26% and the “apoptotic cells seen microscopically” value [9] was “high numbers of apoptotic cells”. The DNA fragmentation [10] was “visible”.
